Data as given in ChEMBL document CHEMBL1201862, “PubChem BioAssay data set” (2004).
Blank lines part the entries; values can stand above or below the compound they belong to. Active and inactive are the calls of the source.

Key:
[1] = cells; details: HEK293
[2] = target: Intestinal-type alkaline phosphatase (Mus musculus, UniProt P24822); test: PubChem AID 488785; format: functional
[3] = target: T1, Caspase-6 (Homo sapiens, UniProt P55212); test: inhibition of CASP6 peptide cleavage – biochemical, VEID-R110 fluorescence, cherry-pick, dose response (AID 720632)
T1 sequence (P55212 whole entry): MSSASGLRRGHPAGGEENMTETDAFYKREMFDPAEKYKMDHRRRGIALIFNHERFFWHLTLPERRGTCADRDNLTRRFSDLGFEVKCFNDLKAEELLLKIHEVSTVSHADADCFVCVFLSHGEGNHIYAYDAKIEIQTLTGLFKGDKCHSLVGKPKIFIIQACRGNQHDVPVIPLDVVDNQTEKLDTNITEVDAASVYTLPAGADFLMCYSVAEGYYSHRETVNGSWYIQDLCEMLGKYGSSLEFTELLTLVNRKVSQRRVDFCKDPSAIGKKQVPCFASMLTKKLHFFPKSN

[4] = target: T2, Small ubiquitin-related modifier 2 (Homo sapiens, UniProt P61956); test: SUMO2 binding disruption by SUMO1 hits – biochemical, FRET, human SUMO2, uHTS hits, selectivity assay for SUMO1 interaction inhibitor project, dose response (AID 624384); format: functional; details: read-out: IC50_Mean
T2 sequence (P61956 whole entry): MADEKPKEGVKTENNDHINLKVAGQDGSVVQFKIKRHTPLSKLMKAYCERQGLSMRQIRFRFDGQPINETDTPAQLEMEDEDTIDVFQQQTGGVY

[5] = target: T3, Small ubiquitin-related modifier 1 (Homo sapiens, UniProt P63165); test: SUMO1 protein interaction blockers, potency – biochemical, fluorescence polarization, uHTS hits, dose response (AID 624382); format: functional; details: read-out: IC50_Mean
T3 sequence (P63165 whole entry): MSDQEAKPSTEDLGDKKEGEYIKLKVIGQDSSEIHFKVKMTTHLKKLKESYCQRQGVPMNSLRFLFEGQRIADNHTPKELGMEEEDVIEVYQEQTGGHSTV

[6] = target: T4, Rac GTPase-activating protein 1 (Homo sapiens, UniProt Q9H0H5); test: blockers of MgcRacGAP-driven Rac1 GTP hydrolysis – biochemical, ADP Hunter fluorescence, primary and confirmatory, confirmation (AID 624330); format: functional
T4 sequence (Q9H0H5 whole entry): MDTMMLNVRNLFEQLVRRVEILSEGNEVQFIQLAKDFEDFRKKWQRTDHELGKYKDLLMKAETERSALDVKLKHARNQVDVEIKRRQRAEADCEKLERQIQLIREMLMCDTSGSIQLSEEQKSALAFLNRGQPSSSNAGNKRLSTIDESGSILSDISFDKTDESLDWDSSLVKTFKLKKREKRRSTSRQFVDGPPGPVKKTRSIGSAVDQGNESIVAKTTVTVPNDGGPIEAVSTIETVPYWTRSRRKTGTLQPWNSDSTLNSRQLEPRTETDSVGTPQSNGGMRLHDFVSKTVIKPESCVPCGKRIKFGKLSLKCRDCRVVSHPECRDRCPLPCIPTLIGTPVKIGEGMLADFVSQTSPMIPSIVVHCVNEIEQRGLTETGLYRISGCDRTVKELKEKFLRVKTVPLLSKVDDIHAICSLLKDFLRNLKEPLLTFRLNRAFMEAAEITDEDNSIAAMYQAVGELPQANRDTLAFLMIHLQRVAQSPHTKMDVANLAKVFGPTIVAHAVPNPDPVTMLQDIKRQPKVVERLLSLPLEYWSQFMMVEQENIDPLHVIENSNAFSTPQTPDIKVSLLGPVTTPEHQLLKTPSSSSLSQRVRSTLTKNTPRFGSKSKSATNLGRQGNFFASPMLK

[7] = target: T2, Small ubiquitin-related modifier 2; test: disruption of SUMO2 interaction with SIM peptide – biochemical, fluorescence polarization, uHTS hits, selectivity assay for SUMO1 interaction inhibitor project, dose response (AID 624385); format: functional; details: read-out: IC50_Mean
[8] = target: T5, Intestinal-type alkaline phosphatase (Homo sapiens, UniProt P09923); test: inhibition of human intestinal alkaline phosphatase – biochemical, dose response (AID 488876); format: functional
T5 sequence (P09923 whole entry): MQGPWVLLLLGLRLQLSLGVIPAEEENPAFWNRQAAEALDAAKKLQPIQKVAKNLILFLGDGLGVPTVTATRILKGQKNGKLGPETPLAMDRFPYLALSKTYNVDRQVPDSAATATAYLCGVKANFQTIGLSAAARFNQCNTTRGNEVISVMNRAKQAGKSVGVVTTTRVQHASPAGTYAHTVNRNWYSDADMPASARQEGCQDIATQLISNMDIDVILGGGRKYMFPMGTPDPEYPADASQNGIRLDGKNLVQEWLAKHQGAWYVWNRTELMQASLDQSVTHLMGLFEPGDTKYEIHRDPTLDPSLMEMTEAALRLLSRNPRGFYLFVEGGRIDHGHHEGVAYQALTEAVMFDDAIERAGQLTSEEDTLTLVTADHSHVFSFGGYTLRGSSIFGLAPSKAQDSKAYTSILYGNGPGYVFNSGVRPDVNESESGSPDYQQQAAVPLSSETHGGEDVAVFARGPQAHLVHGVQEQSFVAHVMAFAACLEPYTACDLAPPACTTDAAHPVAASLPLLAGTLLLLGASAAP

[9] = target: T6, Histone-lysine N-methyltransferase NSD2 (Homo sapiens, UniProt O96028); format: biochemical
T6 sequence (O96028 whole entry): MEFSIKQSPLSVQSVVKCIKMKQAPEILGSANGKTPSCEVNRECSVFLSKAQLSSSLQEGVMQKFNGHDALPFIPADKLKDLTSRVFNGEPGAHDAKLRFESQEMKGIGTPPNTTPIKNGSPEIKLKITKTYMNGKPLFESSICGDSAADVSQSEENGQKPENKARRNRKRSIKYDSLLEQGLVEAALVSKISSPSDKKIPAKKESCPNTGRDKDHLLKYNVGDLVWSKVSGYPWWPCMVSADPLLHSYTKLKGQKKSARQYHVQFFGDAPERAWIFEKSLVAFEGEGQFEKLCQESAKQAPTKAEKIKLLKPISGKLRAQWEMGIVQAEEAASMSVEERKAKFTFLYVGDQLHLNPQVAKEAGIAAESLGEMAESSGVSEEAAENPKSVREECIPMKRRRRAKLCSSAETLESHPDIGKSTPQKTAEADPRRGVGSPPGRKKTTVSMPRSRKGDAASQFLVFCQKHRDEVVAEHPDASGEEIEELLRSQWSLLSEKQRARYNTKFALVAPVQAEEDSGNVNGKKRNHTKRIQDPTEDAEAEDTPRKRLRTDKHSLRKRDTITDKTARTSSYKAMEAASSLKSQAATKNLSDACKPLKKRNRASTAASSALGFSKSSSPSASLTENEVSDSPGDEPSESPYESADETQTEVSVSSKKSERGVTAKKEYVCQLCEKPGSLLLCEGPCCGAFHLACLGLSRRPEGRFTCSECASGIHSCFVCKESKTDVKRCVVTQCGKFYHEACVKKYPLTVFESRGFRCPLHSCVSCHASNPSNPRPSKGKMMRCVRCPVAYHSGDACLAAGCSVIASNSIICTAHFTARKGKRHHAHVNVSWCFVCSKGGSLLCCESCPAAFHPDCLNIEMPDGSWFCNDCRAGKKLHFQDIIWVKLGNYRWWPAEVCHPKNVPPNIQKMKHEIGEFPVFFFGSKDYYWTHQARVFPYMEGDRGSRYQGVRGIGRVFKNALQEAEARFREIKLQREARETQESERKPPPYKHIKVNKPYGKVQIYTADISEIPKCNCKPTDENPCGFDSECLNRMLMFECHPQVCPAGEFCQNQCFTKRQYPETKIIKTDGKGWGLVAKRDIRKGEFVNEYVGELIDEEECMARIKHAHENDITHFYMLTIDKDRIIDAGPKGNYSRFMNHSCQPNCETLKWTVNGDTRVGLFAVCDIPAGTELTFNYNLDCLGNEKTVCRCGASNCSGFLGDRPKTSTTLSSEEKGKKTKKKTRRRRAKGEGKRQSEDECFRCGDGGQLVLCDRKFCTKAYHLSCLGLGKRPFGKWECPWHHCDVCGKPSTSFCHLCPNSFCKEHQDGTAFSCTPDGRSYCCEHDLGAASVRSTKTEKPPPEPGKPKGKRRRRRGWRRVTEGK

[10] = target: Caspase-8 (Homo sapiens, UniProt Q14790); test: inhibitors of purified CASP8 protease – biochemical, Z-IETD-R110 fluorescence, cherry-picked samples, selectivity assay for caspase-6 inhibitor project, dose response (AID 743294)
Chain of Caspase-8 (Q14790 217-374 limits assumed): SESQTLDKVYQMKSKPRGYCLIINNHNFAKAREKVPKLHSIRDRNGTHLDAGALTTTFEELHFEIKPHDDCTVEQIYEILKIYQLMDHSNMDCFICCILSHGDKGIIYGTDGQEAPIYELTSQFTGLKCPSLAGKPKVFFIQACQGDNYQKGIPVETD
Chain of Caspase-8 (Q14790 385-479 limits assumed): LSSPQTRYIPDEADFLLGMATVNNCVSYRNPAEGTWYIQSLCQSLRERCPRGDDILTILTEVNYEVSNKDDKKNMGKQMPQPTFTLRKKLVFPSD

[11] = target: T7, Alkaline phosphatase, tissue-nonspecific isozyme (Homo sapiens, UniProt P05186); test: TNAP enzyme inhibition by screening hits, dose response, selectivity assay for mouse IAP inhibitor project, biochemical, human TNAP, uHTS hits (AID 488906); format: functional
T7 sequence (P05186 whole entry): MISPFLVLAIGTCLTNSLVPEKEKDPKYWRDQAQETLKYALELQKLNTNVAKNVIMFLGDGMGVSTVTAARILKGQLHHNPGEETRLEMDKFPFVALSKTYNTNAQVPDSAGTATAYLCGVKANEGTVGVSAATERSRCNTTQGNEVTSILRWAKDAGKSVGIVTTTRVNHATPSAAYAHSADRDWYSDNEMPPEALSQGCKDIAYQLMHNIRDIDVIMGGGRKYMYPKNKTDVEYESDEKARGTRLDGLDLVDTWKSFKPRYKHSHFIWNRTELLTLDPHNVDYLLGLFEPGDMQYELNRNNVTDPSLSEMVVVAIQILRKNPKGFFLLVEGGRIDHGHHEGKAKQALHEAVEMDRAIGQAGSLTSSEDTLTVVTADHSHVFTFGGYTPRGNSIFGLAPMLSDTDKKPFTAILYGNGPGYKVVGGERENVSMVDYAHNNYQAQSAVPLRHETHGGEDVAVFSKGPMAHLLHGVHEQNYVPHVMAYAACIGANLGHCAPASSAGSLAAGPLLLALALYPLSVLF

[12] = target: T3, Small ubiquitin-related modifier 1; test: SUMO1 protein-protein binding blockers, potency – biochemical, FRET, dose response (AID 624383); format: functional; details: read-out: IC50_Mean
[13] = target: Caspase-7 (Homo sapiens, UniProt P55210); test: caspase-7 enzyme inhibition, selectivity check – biochemical, DEVD-R110 fluorescence, cherry-pick, selectivity assay for caspase-6 inhibitor project, dose response (AID 743295); format: functional
Chain of Caspase-7 (P55210 24-198 limits assumed): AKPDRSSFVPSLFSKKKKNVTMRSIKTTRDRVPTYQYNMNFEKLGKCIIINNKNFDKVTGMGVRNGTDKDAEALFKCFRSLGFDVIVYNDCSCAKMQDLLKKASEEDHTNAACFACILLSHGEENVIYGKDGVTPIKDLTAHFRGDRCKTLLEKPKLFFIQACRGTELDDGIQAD
Chain of Caspase-7 (P55210 207-303 limits assumed): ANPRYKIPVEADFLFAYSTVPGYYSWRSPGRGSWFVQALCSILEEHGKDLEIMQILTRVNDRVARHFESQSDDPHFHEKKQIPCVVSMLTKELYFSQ

[14] = target: Ras and Rab interactor 1/Tyrosine-protein kinase ABL1 (Homo sapiens, UniProt P00519+Q13671); format: functional;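 note: biochemical TR-FRET dose-response test measuring inhibition of binding between Rin1 and Abl proteins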
Chain of Ras and Rab interactor 1/Tyrosine-protein kinase ABL1 (P00519 whole entry): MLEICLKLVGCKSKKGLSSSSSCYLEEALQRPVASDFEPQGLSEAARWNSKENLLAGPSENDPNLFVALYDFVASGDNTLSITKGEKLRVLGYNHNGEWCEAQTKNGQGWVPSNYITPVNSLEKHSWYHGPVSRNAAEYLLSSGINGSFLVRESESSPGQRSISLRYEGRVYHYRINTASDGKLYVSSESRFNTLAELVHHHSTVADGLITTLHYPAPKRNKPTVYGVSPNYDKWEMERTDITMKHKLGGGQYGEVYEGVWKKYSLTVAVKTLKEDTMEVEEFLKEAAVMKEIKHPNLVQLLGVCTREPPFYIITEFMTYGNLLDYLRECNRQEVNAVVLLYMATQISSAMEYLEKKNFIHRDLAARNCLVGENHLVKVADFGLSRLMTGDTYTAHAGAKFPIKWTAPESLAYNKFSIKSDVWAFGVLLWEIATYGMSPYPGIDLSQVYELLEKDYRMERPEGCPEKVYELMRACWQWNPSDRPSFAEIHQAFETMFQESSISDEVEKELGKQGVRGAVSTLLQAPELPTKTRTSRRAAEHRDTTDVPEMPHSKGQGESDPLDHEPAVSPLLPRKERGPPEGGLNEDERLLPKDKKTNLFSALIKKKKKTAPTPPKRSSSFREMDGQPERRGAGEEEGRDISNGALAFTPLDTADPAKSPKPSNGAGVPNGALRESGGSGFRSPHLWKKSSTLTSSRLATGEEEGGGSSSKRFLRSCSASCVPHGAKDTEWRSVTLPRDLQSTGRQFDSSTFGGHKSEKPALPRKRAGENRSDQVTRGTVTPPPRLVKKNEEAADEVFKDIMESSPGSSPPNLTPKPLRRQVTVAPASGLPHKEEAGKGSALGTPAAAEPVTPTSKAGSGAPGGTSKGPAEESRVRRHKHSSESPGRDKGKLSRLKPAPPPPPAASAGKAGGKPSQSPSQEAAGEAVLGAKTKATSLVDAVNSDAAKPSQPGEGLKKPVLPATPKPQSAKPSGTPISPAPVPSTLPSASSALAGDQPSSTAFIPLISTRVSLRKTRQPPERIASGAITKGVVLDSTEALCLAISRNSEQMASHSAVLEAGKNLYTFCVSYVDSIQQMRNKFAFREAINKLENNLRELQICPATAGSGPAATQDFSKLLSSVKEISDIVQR
Chain of Ras and Rab interactor 1/Tyrosine-protein kinase ABL1 (Q13671 whole entry): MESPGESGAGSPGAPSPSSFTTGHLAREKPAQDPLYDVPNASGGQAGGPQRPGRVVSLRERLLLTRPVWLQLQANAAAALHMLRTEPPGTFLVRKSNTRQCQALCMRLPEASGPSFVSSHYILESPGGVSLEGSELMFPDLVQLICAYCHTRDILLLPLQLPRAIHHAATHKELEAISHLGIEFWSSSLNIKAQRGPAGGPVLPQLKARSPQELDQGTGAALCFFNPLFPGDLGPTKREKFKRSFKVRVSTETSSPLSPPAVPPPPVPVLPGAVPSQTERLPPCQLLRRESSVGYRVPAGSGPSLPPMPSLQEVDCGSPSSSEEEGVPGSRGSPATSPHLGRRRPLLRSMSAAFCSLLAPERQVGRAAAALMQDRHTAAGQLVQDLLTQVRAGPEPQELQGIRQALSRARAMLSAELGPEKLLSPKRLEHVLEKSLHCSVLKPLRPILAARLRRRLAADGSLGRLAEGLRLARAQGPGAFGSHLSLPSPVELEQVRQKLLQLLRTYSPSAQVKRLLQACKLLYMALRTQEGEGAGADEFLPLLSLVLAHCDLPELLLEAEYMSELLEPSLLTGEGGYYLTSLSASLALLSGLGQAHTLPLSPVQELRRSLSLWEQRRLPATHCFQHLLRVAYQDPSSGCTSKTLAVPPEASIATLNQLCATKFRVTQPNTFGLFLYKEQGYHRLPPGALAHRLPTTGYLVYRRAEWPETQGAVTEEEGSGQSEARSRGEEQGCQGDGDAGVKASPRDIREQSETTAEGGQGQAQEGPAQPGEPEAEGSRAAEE

[15] = target: Large T antigen (Simian virus 40, UniProt P03070); format: functional, Betapolyomavirus macacae;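 note: Confirmatory-stage PubChem screen for compounds that inhibit SV40 T antigen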
[16] = target: T8, Caspase-3 (Homo sapiens, UniProt P42574); test: human caspase-3 protease activity blockade – biochemical, fluorescence, cherry-picked samples, selectivity assay for caspase-6 allosteric inhibitor project, dose response (AID 743291)
T8 sequence (P42574 whole entry): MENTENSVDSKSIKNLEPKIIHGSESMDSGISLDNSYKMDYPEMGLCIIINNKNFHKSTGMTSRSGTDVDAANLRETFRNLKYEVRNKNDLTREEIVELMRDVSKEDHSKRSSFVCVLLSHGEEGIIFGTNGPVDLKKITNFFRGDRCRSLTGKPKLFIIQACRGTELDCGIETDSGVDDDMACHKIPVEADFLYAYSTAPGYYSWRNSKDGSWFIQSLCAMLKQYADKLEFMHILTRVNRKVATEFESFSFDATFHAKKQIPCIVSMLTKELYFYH

[17] = target: Induced myeloid leukemia cell differentiation protein Mcl-1 (Homo sapiens, UniProt Q07820); format: functional
Chain of Induced myeloid leukemia cell differentiation protein Mcl-1 (Q07820 whole entry): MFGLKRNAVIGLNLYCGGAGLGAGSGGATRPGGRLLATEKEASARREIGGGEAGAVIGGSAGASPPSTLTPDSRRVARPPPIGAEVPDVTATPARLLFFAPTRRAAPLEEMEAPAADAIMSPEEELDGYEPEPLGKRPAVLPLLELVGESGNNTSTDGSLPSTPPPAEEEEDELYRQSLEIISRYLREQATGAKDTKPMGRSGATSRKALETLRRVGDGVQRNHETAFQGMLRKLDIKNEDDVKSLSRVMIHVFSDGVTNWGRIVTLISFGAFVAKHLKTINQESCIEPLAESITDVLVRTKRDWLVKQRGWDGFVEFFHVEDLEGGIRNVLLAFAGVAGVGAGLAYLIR

[18] = target: T5, Intestinal-type alkaline phosphatase; test: activation of human intestinal alkaline phosphatase – biochemical, dose response (AID 488873); format: functional
[19] = target: T9, DNA repair protein RAD52 homolog (Homo sapiens, UniProt P43351); format: functional, biochemical
T9 sequence (P43351 whole entry): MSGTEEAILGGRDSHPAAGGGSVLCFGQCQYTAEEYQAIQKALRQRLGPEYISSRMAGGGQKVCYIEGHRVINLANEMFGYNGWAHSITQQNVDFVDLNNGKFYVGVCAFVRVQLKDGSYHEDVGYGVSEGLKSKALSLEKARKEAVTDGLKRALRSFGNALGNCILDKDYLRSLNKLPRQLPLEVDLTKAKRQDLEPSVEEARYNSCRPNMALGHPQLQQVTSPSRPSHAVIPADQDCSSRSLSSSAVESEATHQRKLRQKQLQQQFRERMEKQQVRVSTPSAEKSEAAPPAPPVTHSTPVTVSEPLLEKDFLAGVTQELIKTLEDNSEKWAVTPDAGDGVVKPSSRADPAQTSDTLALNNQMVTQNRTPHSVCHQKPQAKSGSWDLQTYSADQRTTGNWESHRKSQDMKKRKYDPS

[20] = target: COUP transcription factor 2 (Homo sapiens, UniProt P24468); test: Luminescence-based cell-based high throughput dose response assay to identify inhibitors of COUP-TFII (NR2F2).; format: functional;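 note: HEK293 cells transiently cotransfected with COUP-TFII expression vector and reporter; luciferase reporter luminescence driven by COUP-TFII from the pX2-168 reporter plasmid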
Chain of COUP transcription factor 2 (P24468 whole entry): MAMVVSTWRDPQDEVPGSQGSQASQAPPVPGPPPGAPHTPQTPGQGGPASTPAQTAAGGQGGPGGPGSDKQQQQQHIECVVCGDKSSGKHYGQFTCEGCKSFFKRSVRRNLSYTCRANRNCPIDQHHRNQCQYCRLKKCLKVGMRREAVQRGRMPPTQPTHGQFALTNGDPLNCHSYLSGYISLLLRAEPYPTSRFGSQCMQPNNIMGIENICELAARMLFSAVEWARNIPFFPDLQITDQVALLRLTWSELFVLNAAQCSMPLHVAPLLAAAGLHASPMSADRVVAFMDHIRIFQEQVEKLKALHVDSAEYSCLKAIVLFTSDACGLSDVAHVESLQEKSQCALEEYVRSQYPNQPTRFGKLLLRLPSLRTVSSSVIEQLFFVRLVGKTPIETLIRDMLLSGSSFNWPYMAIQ

[21] = viability loss in HepG2 liver cells – cell-based, ATP luminescence, cherry-pick, set 6, cytotoxicity control, dose response (AID 1053125); format: functional
[22] = target: Disintegrin and metalloproteinase domain-containing protein 17 (Homo sapiens, UniProt P78536); test: inhibition of ADAM17 substrate cleavage – biochemical, quenched FRET substrate, counter-screen for ADAM10 exosite inhibitor project, dose response (AID 743253)
[23] = target: Eukaryotic translation initiation factor 4E (Mus musculus, UniProt P63073); test: blockers of eIF4G binding by eIF4E – biochemical, TR-FRET, dose response (AID 855); format: functional;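 note: potency for disrupting eIF4E binding to eIF4GI seen as loss of FRET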
Chain of Eukaryotic translation initiation factor 4E (P63073 whole entry): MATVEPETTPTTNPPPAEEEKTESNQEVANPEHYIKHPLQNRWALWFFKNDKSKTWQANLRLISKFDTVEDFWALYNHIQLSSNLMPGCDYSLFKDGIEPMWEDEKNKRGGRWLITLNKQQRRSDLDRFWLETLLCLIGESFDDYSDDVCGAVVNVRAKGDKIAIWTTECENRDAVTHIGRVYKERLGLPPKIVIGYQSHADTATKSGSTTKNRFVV

[24] = potency of ADAM10 substrate cleavage blockers – biochemical, QFRET, dose response (AID 743254);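 note: ADAM10 enzyme with the DM2 quenched FRET peptide as substrate; EDANS fluorescence gain as the protease cuts the substrate; inhibitor potency against ADAM10 proteolytic activity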
[25] = target: NAD-dependent protein deacylase sirtuin-5, mitochondrial (Homo sapiens, UniProt Q9NXA8); test: sirtuin-5 deacylation blockers, concentration series – biochemical, fluorescence imaging, cherry-pick, set 5, dose response (AID 720591);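 note: desuccinylation of succinyl peptide AMC substrate read as fluorescence after trypsin release; potency of inhibitors that lower fluorescence and may act on trypsin instead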

Chain of Intestinal-type alkaline phosphatase (Mus musculus, UniProt P24822) (P24822 whole entry): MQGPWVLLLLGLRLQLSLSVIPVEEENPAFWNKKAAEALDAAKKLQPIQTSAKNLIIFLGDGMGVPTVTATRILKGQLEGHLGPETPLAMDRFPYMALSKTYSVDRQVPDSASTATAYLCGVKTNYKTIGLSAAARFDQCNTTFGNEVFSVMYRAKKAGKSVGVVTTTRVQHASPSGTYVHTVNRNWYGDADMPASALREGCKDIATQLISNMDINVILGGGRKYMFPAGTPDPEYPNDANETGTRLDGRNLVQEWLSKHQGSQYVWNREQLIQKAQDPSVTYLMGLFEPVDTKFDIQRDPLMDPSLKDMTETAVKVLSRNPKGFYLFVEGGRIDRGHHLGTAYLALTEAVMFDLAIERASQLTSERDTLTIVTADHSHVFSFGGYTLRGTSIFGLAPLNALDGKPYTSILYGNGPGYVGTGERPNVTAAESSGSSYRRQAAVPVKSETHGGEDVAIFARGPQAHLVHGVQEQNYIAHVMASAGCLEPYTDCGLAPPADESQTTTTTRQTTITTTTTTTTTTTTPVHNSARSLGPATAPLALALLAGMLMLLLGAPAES

Structure (SMILES): C1CCNCC1.N#CC1=C(N)Oc2cc(O)ccc2C1c1ccc2c(c1)OCO2 (stereo not given)
- AC50 [1]: > 52 µM (inactive)

Structure (SMILES): O=C(COC(=O)c1ccccc1)Nc1ncc([N+](=O)[O-])s1
- IC50 [2]: < 0.195 µM (active)
- AC50 [3]: 951 nM (active)
- IC50 [4]: > 66 µM (inactive)
- IC50 [5]: 9.39 µM (active)
- IC50 [6]: 50.2 µM (active)
- IC50 [7]: 14.7 µM (active)
- IC50 [8]: 80.6 µM (active)
- AC50 [9]: 2.74 µM (active)
- AC50 [10]: 61.3 µM (active)
- IC50 [11]: 1.06 µM (active)
- IC50 [12]: 51.7 µM (inactive)
- AC50 [13]: 16.3 µM (active)

Structure (SMILES): O=C(CCO)c1ccc(O)cc1
- IC50 [2]: > 100 µM (inactive)
- IC50 [14]: 11.9 µM (inactive)
- AC50 [3]: 1320 nM (active)
- IC50 [15]: 28.8 µM (active)
- AC50 [16]: 31.7 µM (active)
- IC50 [17]: 5.16 µM (active)
- EC50 [18]: 11.3 µM (active)
- IC50 [11]: > 100 µM (inactive)
- AC50 [13]: 9.65 µM (active)

Structure (SMILES): CCOC(=O)c1cc2c(=O)n3ccccc3nc2n(C(C)C)/c1=N/C(=O)c1ccco1
- AC50 [21]: > 52 µM (inactive)

More lines, now with the values ahead:

- AC50 [19]: 1.07 µM (active)
- IC50 [20]: 5.24 µM (active)
Structure (SMILES): NC(S)=NN=C1c2cc(OCCN3CCOCC3)ccc2-c2ccc(OCCN3CCOCC3)cc21

- IC50 [22]: 20 µM (inactive)
- IC50 [17]: 4.76 µM (not active)
- IC50 [23]: 50 µM (inactive)
- IC50 [24]: 4.72 µM (active)
Structure (SMILES): Oc1cc2c(cc1C(c1ccc(Cl)c(Cl)c1)N1CCCC1)OCO2 (stereo not given)

- AC50 [25]: > 30 µM (inactive)
Structure (SMILES): O=C(Cn1nc(-c2ccc(Cl)cc2)ccc1=O)NCC1COCCO1 (stereo not given)
